Paper PMC11318591 (ACS Medicinal Chemistry Letters, 2024)
≈ marks a conversion by molar mass, not a printed value. Read-outs that look alike come from different tables or passages of the source. Each block holds one compound with its values, some of them ahead of it.

Key:
S. aureus DNA gyrase = S. aureus DNA gyrase (Staphylococcus aureus, UniProt P20831); assay: DNA cleavage assay
[1] = test system: S. enterica Typhimurium 14028 ΔtolC1::kan; assay: Minimal inhibitory concentration; assay type: cell-based, Salmonella enterica serovar Typhimurium; conditions: for MIC: Salmonella enterica, TYPHIMURIUM, read-out: S. enterica Typhimurium 14028 ΔtolC1::kan MIC
[2] = MIC wildtype 14028 vs efflux-deficient ΔtolC1::kan

Structure (SMILES): COc1ccc2ncc(F)c(CCN3CCC(C(N)Cc4ccc(C)cc4)CC3)c2n1 (stereo not drawn) [9a]
levels of SSBs (S. aureus DNA gyrase): lower levels of SSBs

Structure (SMILES): COc1ccc2ncc(F)c(CCN3CCC(/C=C\c4ccc(C)cc4)CC3)c2n1 [21a]
Fold Change [1]: ≥8

Structure (SMILES): COc1ccc2ncc(F)c(CCN3CCC(/C=C\c4ccc5c(c4)OCCO5)CC3)c2n1 [21b]
Fold Change [1, 2]: ≥16

Structure (SMILES): O=c1ccc2ncc(=O)n3c2n1C[C@H]3CN1CCC(NCc2cc3c(cn2)OCCC3)CC1 [Gep., gepotidacin, reference compound]
Fold Change [1, 2]: 4–16 | MIC [1]: 0.125 to 0.5 µg/mL (≈ 0.279 to 1.11 µM)

Structure (SMILES): COc1ccc2ncc(F)c(CCN3CCC(/C=C/c4ccc(C)cc4)CC3)c2n1 [13a]
MIC [1]: 0.5 to 1 µg/mL (≈ 1.23 to 2.47 µM)

The remaining lines, values ahead:

MIC [1]: 0.5 to 1 µg/mL (≈ 1.14 to 2.28 µM)
Structure (SMILES): COc1ccc2ncc(F)c(CCN3CCC([C@@H](O)[C@H](O)c4ccc(C)cc4)CC3)c2n1 [16a]

levels of SSBs (S. aureus DNA gyrase): lower levels of SSBs
Structure (SMILES): COc1ccc2ncc(F)c(CCN3CCC(NCc4ccc(C)cc4)CC3)c2n1 [compound 40]

MIC [1]: 0.5 µg/mL (≈ 1.03 µM)
Structure (SMILES): COc1ccc2ncc(F)c(CCN3CCC([C@@H](O)[C@H](O)c4ccc5c(c4)OCCO5)CC3)c2n1 [16b]
